Experimental data taken from ChEMBL document CHEMBL4265969, “Design, synthesis and biological evaluation of (2S,3R,4R,5S,6R)-5-fluoro-6-(hydroxymethyl)-2-aryltetrahydro-2H-pyran-3,4-diols as potent and orally active SGLT dual inhibitors” (Bioorg Med Chem Lett, 2018).
The source made the active and inactive calls. The calls are words filed in the database; no cut-off is given here.

Columns and labels:
[1] = Half life in monkey hepatocytes at 1 uM; assay type: ADME, cell-based, Macaca mulatta, Hepatocyte; settings: rhesus monkey
[2] = Metabolic stability in mouse liver microsomes at 1 uM after 10 mins in presence of NADPH; assay type: ADME, microsome; settings: read-out: Stability
[3] = Half life in dog hepatocytes at 1 uM; assay type: ADME, cell-based, Canis lupus familiaris, Hepatocyte
[4] = Half life in Sprague-Dawley rat at 10 mg/kg, po; assay type: ADME, organism-based; settings: in vivo
[5] = Cmax in Sprague-Dawley rat at 10 mg/kg, po; assay type: ADME, organism-based; parameters: dose 10 mg/kg, route oral; settings: in vivo
[6] = AUC (0 to infinity) in Sprague-Dawley rat at 10 mg/kg, po; assay type: ADME, organism-based; parameters: dose 10 mg/kg, route oral, time infinity; settings: in vivo
[7] = Metabolic stability in human liver microsomes at 1 uM after 10 mins in presence of NADPH; assay type: ADME, microsome; settings: read-out: Stability
[8] = tested on: Mus musculus; assay: In vivo inhibition of SGLT2 in db/db mouse assessed as increase in urine glucose excretion at 10 mg/kg, po after 24 hrs; assay type: functional, organism-based
[9] = Oral bioavailability in cynomolgus monkey at 10 mg/kg; assay type: ADME, organism-based, Macaca fascicularis; settings: in vivo
[10] = Metabolic stability in rat liver microsomes at 1 uM after 10 mins in presence of NADPH; assay type: ADME, microsome; settings: read-out: Stability
[11] = biological target: T1, Sodium/glucose cotransporter 1 (Rattus norvegicus, UniProt P53790); assay: Inhibition of rat SGLT1 expressed in CHOK1 cells assessed as reduction in Na-dependent [14C]-AMG uptake preincubated for 10 mins followed by [14C]-AMG addition measured after 2 hrs by TopCount method; assay type: cell-based
T1 sequence (P53790 whole entry): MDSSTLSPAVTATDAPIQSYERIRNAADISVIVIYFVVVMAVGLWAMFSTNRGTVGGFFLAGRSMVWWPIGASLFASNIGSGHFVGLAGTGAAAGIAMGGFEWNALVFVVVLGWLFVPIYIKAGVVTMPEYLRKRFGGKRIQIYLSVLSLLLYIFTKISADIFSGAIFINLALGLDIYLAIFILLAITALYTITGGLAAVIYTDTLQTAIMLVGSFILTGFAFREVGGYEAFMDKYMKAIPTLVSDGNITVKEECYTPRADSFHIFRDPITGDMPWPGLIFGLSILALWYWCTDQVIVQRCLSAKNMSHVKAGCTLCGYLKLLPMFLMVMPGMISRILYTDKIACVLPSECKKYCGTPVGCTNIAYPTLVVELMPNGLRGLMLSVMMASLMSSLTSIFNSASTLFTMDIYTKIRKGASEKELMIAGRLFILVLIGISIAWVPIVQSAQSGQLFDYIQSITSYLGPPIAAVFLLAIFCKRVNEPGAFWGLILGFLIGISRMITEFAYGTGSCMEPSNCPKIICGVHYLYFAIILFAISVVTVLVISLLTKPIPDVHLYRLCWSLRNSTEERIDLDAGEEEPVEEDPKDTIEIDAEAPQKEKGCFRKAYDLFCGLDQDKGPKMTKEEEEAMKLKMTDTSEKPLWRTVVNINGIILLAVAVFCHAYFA

[12] = Half life in cynomolgus monkey at 2 mg/kg, iv; assay type: ADME, organism-based, Macaca fascicularis; settings: in vivo
[13] = Volume of distribution at steady state in Sprague-Dawley rat at 2 mg/kg, iv; assay type: ADME, organism-based; settings: in vivo, read-out: Vdss
[14] = Clearance in cynomolgus monkey at 2 mg/kg, iv; assay type: ADME, organism-based, Macaca fascicularis; settings: in vivo
[15] = Half life in Sprague-Dawley rat at 2 mg/kg, iv; assay type: ADME, organism-based; settings: in vivo
[16] = tested on: Salmonella typhimurium; assay: Genotoxicity in Salmonella typhimurium TA98; assay type: toxicity, organism-based; settings: salmonella enterica subsp. enterica serovar typhimurium
[17] = tested on: Rattus norvegicus; assay: Antidiabetic activity in Sprague-Dawley rat assessed as decrease in postprandial blood glucose AUC at 1 mg/kg, po administered 1 hr prior to glucose challenge measured up to 120 mins by OGTT relative to control; assay type: functional; parameters: scale not given: the % may be the effect or the level left
[18] = biological target: T2, Sodium/glucose cotransporter 2 (Rattus norvegicus, UniProt P53792); assay: Inhibition of rat SGLT2 expressed in CHOK1 cells assessed as reduction in Na-dependent [14C]-AMG uptake preincubated for 10 mins followed by [14C]-AMG addition measured after 2 hrs by TopCount method; assay type: cell-based
T2 sequence (P53792 whole entry): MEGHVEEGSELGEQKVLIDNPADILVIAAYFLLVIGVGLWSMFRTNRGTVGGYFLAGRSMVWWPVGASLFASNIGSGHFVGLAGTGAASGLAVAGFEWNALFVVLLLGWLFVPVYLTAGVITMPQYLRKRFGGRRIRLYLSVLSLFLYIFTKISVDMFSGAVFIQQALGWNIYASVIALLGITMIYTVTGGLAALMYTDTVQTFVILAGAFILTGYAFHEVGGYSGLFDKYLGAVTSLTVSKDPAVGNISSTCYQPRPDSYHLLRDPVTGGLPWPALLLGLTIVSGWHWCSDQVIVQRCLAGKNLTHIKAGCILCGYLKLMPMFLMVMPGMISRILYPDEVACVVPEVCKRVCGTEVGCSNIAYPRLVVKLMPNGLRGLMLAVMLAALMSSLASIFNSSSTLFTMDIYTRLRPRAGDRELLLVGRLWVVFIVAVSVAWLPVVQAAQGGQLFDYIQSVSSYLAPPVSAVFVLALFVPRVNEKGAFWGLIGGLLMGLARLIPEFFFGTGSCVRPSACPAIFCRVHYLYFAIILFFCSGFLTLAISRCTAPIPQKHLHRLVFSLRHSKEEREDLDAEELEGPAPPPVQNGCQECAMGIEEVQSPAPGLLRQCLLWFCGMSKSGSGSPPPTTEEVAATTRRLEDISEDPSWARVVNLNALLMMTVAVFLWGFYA

[19] = AUC (0 to infinity) in cynomolgus monkey at 10 mg/kg, po; assay type: ADME, organism-based, Macaca fascicularis; parameters: dose 10 mg/kg, time infinity, route oral; settings: in vivo
[20] = Tmax in cynomolgus monkey at 10 mg/kg, po; assay type: ADME, organism-based, Macaca fascicularis; settings: in vivo
[21] = Oral bioavailability in Sprague-Dawley rat at 10 mg/kg; assay type: ADME, organism-based; settings: in vivo
[22] = Half life in human hepatocytes at 1 uM; assay type: ADME, cell-based, Hepatocyte
[23] = Clearance in Sprague-Dawley rat at 2 mg/kg, iv; assay type: ADME, organism-based; settings: in vivo
[24] = biological target: Voltage-gated inwardly rectifying potassium channel KCNH2 (Homo sapiens, UniProt Q12809); assay: Inhibition of human ERG at 50 uM
Chain of Voltage-gated inwardly rectifying potassium channel KCNH2 (Q12809 whole entry): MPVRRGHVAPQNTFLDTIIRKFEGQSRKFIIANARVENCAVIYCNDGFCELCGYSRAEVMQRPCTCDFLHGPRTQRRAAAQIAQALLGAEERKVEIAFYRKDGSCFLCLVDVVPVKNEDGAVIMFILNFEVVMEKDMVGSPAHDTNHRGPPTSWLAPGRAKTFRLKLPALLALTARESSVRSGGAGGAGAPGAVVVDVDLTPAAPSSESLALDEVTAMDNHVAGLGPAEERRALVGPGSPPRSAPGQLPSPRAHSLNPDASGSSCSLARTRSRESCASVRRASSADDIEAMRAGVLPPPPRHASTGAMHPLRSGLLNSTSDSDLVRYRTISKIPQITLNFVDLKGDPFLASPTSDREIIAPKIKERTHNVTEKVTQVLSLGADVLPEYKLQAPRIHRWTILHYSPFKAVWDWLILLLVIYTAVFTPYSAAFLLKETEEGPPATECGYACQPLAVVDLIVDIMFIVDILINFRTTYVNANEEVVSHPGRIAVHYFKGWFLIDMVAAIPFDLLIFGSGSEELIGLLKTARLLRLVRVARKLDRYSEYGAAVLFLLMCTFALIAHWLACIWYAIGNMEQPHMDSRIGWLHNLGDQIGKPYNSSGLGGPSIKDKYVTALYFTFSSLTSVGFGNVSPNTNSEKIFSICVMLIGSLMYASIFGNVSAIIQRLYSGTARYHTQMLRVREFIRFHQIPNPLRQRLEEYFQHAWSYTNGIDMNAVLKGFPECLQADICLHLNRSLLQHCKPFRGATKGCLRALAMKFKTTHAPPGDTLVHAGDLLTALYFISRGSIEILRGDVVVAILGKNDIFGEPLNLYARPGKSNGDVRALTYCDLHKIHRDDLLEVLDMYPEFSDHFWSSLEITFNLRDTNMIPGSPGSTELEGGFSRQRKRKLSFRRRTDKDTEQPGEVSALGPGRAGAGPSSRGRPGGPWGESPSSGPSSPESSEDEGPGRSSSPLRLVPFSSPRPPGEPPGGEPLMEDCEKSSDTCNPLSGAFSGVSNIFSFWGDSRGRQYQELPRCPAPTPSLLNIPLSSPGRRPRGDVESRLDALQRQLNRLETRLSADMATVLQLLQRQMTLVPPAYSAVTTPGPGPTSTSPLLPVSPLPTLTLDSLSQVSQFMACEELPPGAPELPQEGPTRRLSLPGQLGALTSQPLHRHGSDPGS

[25] = tested on: Rattus norvegicus; assay: Antidiabetic activity in Sprague-Dawley rat assessed as decrease in postprandial blood glucose level administered orally 1 hr prior to glucose challenge measured up to 120 mins by OGTT; assay type: functional, organism-based
[26] = Volume of distribution at steady state in cynomolgus monkey at 2 mg/kg, iv; assay type: ADME, organism-based, Macaca fascicularis; settings: in vivo, read-out: Vdss
[27] = Half life in cynomolgus monkey at 10 mg/kg, po; assay type: ADME, organism-based, Macaca fascicularis; settings: in vivo
[28] = tested on: Mus musculus; assay: Anti-hyperglycemic effect in db/db mouse assessed as decrease in fed blood glucose AUC at 10 mg/kg, po measured up to 24 hrs relative to control; assay type: functional; parameters: scale not given: the % may be the effect or the level left
[29] = tested on: Rattus norvegicus; assay: Anti-hyperglycemic effect in ZDF rat assessed as decrease in fed blood glucose AUC at 10 mg/kg, po measured up to 24 hrs relative to control; assay type: functional; parameters: scale not given: the % may be the effect or the level left
[30] = Half life in Sprague-Dawley rat hepatocytes at 1 uM; assay type: ADME, cell-based, Hepatocyte
[31] = Cmax in cynomolgus monkey at 10 mg/kg, po; assay type: ADME, organism-based, Macaca fascicularis; parameters: dose 10 mg/kg, route oral; settings: in vivo
[32] = Tmax in Sprague-Dawley rat at 10 mg/kg, po; assay type: ADME, organism-based; settings: in vivo

## COc1c([C@@H]2O[C@H](CO)[C@@H](F)[C@H](O)[C@H]2O)cc(Cc2ccc3c(c2)OCCO3)c2c1CCO2
[1]
  half-life at 1 µM: 2.2 h
[2]
  remaining at 10 min, 1 µM: 82%
[3]
  half-life at 1 µM: 8 h
[4]
  half-life: 1.44 h
[5]
  Cmax: 990 ng/mL
[6]
  AUC(0-inf): 1600 ng·h/mL
[7]
  remaining at 10 min, 1 µM: 95%
[8]
  inhibition: Active
[9]
  bioavailability: 56%
[10]
  remaining at 10 min, 1 µM: 66%
[11]
  IC50: 68 nM
[12]
  half-life: 7.9 h
[13]
  Vd: 1.07 L/kg
[14]
  clearance: 15.5 mL/min/kg
[15]
  half-life: 0.41 h
[16]
  Activity: Non-Toxic
[17]
  Activity: 32.4%
[18]
  IC50: 16 nM
[19]
  AUC(0-inf): 6090 ng·h/mL
[20]
  Tmax: 1.33 h
[21]
  bioavailability: 48.2%
[22]
  half-life at 1 µM: 5.4 h
[23]
  clearance: 50.9 mL/min/kg
[24]
  inhibition (INH): Not Active
[25]
  Activity: Dose-dependent effect
[26]
  Vd: 3.05 L/kg
[27]
  half-life: 5.6 h
[28]
  Activity: 57.4%
[29]
  Activity: 56.8%
[30]
  half-life at 1 µM: 1.2 h
[31]
  Cmax: 1490 ng/mL
[32]
  Tmax: 0.3 h
